Read-outs that look alike come from different tables or passages of the source.
Tests used:
[1] = cited from earlier work
[2] = oral; cited from earlier work
[3] = test system: pancreatic cancer xenograft PAXF 546; test: clonogenic assay, single agents and combination studies; format: cell-based, human
Description: (§1) The cell mixture was passed through sieves of 200 μm and 50 μm mesh size and washed thereafter twice with PBS. The percentage of viable cells was determined in a Neubauer counting chamber using trypan blue exclusion.
(§2) 8×10^3 to 1,6×10^4 cells were added to 0.2 ml of the same culture medium together with 0.4% agar and placed in already coated 24-multiwell dishes. Test substances were applied by continuous exposure (drug overlay) in 0.2 ml medium. Every dish included six control wells containing the vehicle- and drug-treated groups in triplicate at six concentrations.
(§3) Cultures were incubated at 37° and 7% CO2 in a humidified atmosphere for 5 to 15 days (depending on the doubling time of the tumor stem cells) and monitored for colony growth using an inverted microscope. Within this period, in vitro tumor growth led to the formation of colonies with a diameter of ≧50 μm. At the time of maximum colony formation counts were performed with an automatic image analysis system (OMNICOM Fas IV, Biosys GmbH). […] Drug effects were expressed in terms of the percentage of surviving cells, obtained by comparison of the mean number of colonies in the treated plates with the mean colony count of the untreated controls (test-versus-control-group value, T/C=colony countTreated Group*100/colony countControl Group).
(§4) Coefficient of variation in the control group ≦50%. IC50 and IC70 values were determined by plotting compound concentration versus cell survival rate. Mean IC50 and IC70 values were calculated according to the formula: [formula]
(§5) with x=specific tumor xenograft and n=total number of tumor xenografts studied. If an IC50 or IC70 value could not be determined within the examined dose range, the lowest or highest concentration studied was used for the calculation.
(§6) Each experiment included the chemotherapeutic agents in 6 concentrations, selenium in 2 concentrations (3 and 30 μM), and the combination of all doses with selenium at 3 and 30 μM. All compounds and combinations were studied in triplicates. […] Each experiment was performed twice.
(§7) T/Cexpectd(A+B)=T/C(A)×T/C(B)/100
(§8) For a zero-interactive drug combination (additivity of drug effects) T/Cexpected(A+B)[…]T/Cobserved(A+B). A drug combination is synergistic if T/Cobserved(A+B) is statistically significant[…]T/Cexpected(A+B). Statistical significance was determined by the T-test.

[4] = test system: pancreatic cancer xenograft PAXF 736; test: as above; format: cell-based, human
Description: as §1, §2, §3, §4, §5, §6, §7, §8

[5] = cited from earlier work; remark: listed apart in the source
[6] = test system: human tumor xenografts; test: clonogenic assay, all 12 xenografts (means, active/total); format: cell-based
Description: as §1, §2, §3, §4, §5

[7] = corresponding selenium concentration
[8] = mean over the xenografts studied

SMILES: O=[Se]([O-])[O-].[Na+].[Na+] [sodium selenite]
- plasma selenium ([1]; 8 hours after 10 mg selenium as sodium selenite): 770 μg/I
- plasma selenium ([1]; 16 hours after 10 mg selenium as sodium selenite): 430 μg/I
- time until selenium level in plasma again reached its initial value ([1]; after 10 mg selenium as sodium selenite): 24 h
- dose from which gastrointestinal toxicity was observed (reversible) ([1]; infusion, tumor patients): about 20 mg selenium
- selenium level in plasma ([1]; within 30 minutes after 10 mg selenium as sodium selenite, infused, rose from 200 μg/l): 1200 µg/L
- intestinal absorption, sometimes [2]: over 90%
- Sodium selenite T/C in % ([3]; 3.0 μM alone, X261, X295): 91 ± 8%
- Sodium selenite T/C in % ([3]; 30.0 μM alone, X261): 80 ± 13%
- Sodium selenite T/C in % ([3]; 30.0 μM alone, X295): 49 ± 6%
- Test/control (%) at drug concentration [μM] 1. ([3]; PAXF 546/2, *(2)): 104%
- Test/control (%) at drug concentration [μM] 10. ([3]; PAXF 546/2, *(2)): 88%
- Test/control (%) at drug concentration [μM] 100. ([3]; PAXF 546/2, *(2)): 2%
- Test/control (%) at drug concentration [μM] .001 ([3]; PAXF 546/2, *(2)): 82%
- Test/control (%) at drug concentration [μM] .01 ([3]; PAXF 546/2, *(2)): 112%
- Test/control (%) at drug concentration [μM] .1 ([3]; PAXF 546/2, *(2)): 100%
- Test/control (%) class at drug concentration [μM] 1. ([3]; PAXF 546/2, *(2)): − (− (T/C ≧ 50%))
- Test/control (%) class at drug concentration [μM] 10. ([3]; PAXF 546/2, *(2)): − (− (T/C ≧ 50%))
- Test/control (%) class at drug concentration [μM] 100. ([3]; PAXF 546/2, *(2)): +++ (+++ (T/C ≦ 10%))
- Test/control (%) class at drug concentration [μM] .001 ([3]; PAXF 546/2, *(2)): − (− (T/C ≧ 50%))
- Test/control (%) class at drug concentration [μM] .01 ([3]; PAXF 546/2, *(2)): − (− (T/C ≧ 50%))
- Test/control (%) class at drug concentration [μM] .1 ([3]; PAXF 546/2, *(2)): − (− (T/C ≧ 50%))
- Sodium selenite T/C in % ([4]; 3.0 μM alone, X265, X290): 81 ± 12%
- Sodium selenite T/C in % ([4]; 30.0 μM alone, X265): 43 ± 8%
- Sodium selenite T/C in % ([4]; 30.0 μM alone, X290): 5 ± 2%
- Sodium selenite T/C in % ([4]; 30.0 μM alone, X290, listed as selenium): 5%
- Test/control (%) at drug concentration [μM] 1. ([4]; PAXF 736/17, X184AM): 88%
- Test/control (%) at drug concentration [μM] 10. ([4]; PAXF 736/17, X184AM): 90%
- Test/control (%) at drug concentration [μM] 100. ([4]; PAXF 736/17, X184AM): 4%
- Test/control (%) at drug concentration [μM] .001 ([4]; PAXF 736/17, X184AM): 87%
- Test/control (%) at drug concentration [μM] .01 ([4]; PAXF 736/17, X184AM): 77%
- Test/control (%) at drug concentration [μM] .1 ([4]; PAXF 736/17, X184AM): 94%
- Test/control (%) class at drug concentration [μM] 1. ([4]; PAXF 736/17, X184AM): − (− (T/C ≧ 50%))
- Test/control (%) class at drug concentration [μM] 10. ([4]; PAXF 736/17, X184AM): − (− (T/C ≧ 50%))
- Test/control (%) class at drug concentration [μM] 100. ([4]; PAXF 736/17, X184AM): +++ (+++ (T/C ≦ 10%))
- Test/control (%) class at drug concentration [μM] .001 ([4]; PAXF 736/17, X184AM): − (− (T/C ≧ 50%))
- Test/control (%) class at drug concentration [μM] .01 ([4]; PAXF 736/17, X184AM): − (− (T/C ≧ 50%))
- Test/control (%) class at drug concentration [μM] .1 ([4]; PAXF 736/17, X184AM): − (− (T/C ≧ 50%))
- dosage considered harmless in sensitive persons ([5]; humans, sensitive persons): up to 500 μg per day
- safe maximum daily intake of selenium ([5]; humans, inferred from chronic toxicity observations): 820 µg
- daily supply after which clinical signs of selenosis were observed ([5]; study carried out in China): 3200 to 6700 µg
- T/C values in all xenografts ([6]; 100 μM): below 20%
- active(++, +++)/total ([6]; 1. μM): 0/12
- active(++, +++)/total xenografts only, percent ([6]; 1. μM): 0%
- active(++, +++)/total ([6]; 10. μM): 2/12
- active(++, +++)/total xenografts only, percent ([6]; 10. μM): 17%
- active(++, +++)/total ([6]; 100. μM): 12/12
- active(++, +++)/total xenografts only, percent ([6]; 100. μM): 100%
- active(++, +++)/total ([6]; .001 μM): 0/12
- active(++, +++)/total xenografts only, percent ([6]; .001 μM): 0%
- active(++, +++)/total ([6]; .01 μM): 0/12
- active(++, +++)/total xenografts only, percent ([6]; .01 μM): 0%
- active(++, +++)/total ([6]; .1 μM): 0/12
- active(++, +++)/total xenografts only, percent ([6]; .1 μM): 0%
- cytotoxic effect ([6]; amounts up to 1 μM): no distinct cytotoxic effect
- mean IC50 as selenium concentration [6, 7]: 1,2 μg/ml
- mean IC70 as selenium concentration [6, 7]: 2.1 µg/mL
- IC50 [6, 8]: 15.5 µM
- mean IC70 [6, 8]: 27 µM
